Experimental findings from PMC10141604, “Small-Molecule Inhibition of Androgen Receptor Dimerization as a Strategy against Prostate Cancer” (ACS Central Science, 2023) are described below.

Bounds are passed on as bounds.

This assay has as its target T1, AR (Homo sapiens, UniProt P10275, T878A).
T1 construct: The cells of LNCaP-ARR2PB-eGFP were; endogenous in cells; host or cells: LNCaP-ARR2PB-eGFP
T1 sequence (P10275 1-920 T878A): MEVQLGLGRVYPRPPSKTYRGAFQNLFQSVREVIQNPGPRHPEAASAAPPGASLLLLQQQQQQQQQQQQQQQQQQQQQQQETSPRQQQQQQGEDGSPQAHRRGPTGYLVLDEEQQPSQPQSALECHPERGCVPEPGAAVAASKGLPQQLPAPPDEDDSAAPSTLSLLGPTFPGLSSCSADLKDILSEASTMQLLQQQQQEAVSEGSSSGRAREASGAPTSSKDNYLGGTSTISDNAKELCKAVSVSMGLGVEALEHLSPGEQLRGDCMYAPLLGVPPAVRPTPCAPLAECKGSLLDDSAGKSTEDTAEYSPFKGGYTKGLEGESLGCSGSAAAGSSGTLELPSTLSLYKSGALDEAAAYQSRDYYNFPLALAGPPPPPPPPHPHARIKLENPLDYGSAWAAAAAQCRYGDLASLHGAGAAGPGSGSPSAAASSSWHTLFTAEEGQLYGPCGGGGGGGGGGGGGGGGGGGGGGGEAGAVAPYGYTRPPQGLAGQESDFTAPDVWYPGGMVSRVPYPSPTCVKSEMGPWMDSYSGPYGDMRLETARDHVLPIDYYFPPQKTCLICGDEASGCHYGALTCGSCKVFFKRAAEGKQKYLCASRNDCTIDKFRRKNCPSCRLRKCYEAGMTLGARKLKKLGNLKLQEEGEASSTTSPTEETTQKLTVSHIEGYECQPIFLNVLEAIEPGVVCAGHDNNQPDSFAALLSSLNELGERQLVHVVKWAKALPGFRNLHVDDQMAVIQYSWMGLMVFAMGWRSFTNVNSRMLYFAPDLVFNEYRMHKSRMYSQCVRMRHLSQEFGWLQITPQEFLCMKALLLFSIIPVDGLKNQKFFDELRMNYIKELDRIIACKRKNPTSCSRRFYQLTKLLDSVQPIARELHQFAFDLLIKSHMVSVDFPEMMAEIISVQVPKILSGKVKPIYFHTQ
Put plainly: AR transcriptional activity assay (LNCaP-ARR2PB-eGFP cells). In kind it is cell-based. As for the experimental part: University, Hangzhou, China), respectively. […]
AR Transcriptional Activity Assay
The AR transcriptional activities were determined using the constructed LNCaP-ARR2PB-eGFP cell as previously reported.11, 12 The cells of LNCaP-ARR2PB-eGFP were […]
by seeding into a 96 -well plate (3.5× 10^4 cells/well) for 1 day incubation at 37 °C. Then, the cells were treated with 5 nM DHT and various concentrations of compounds (10 μM […]
the fluorescence intensities were determined using a Synergy H1 microplate reader

Regarding `CC(=O)Cc1nsc(NC(=O)c2cc(-c3cccc(C(F)(F)F)c3)oc2C)n1` [Compound M17-B15], the IC50 (in general, the concentration that inhibits the measured activity by half) (LNCaP-ARR2PB-eGFP cells, 5 nM DHT, 3 days) amounted to 30 ± 10 nM. The “improvement in AR transcriptional inhibition compared with the original hit M17” value (ratio of IC50 values) is recorded as more than 31 fold.
